Reference: BigSolDB 2.1

CC1(C)COP(=O)(C(Nc2ccccc2)c2ccccc2)OC1 (stereo not drawn)
Settings | solubility (mole fraction)
in 1,2-dichloroethane, 278.65 K | 0.0102
in 1,2-dichloroethane, 283.65 K | 0.0119
in 1,2-dichloroethane, 288.65 K | 0.0143
in 1,2-dichloroethane, 293.25 K | 0.0169
in 1,2-dichloroethane, 298.15 K | 0.0191
in 1,2-dichloroethane, 303.15 K | 0.0229
in 1,2-dichloroethane, 308.25 K | 0.0265
in 1,2-dichloroethane, 313.15 K | 0.031
in 1,2-dichloroethane, 318.15 K | 0.035
in 1,2-dichloroethane, 323.15 K | 0.0395
in 1,2-dichloroethane, 328.15 K | 0.0437
in 1,2-dichloroethane, 333.15 K | 0.0526
in 1,4-dioxane, 285.65 K | 0.00609
in 1,4-dioxane, 288.65 K | 0.00661
in 1,4-dioxane, 293.65 K | 0.00739
in 1,4-dioxane, 298.15 K | 0.00887
in 1,4-dioxane, 303.15 K | 0.0103
in 1,4-dioxane, 308.15 K | 0.0121
in 1,4-dioxane, 313.15 K | 0.0139
in 1,4-dioxane, 318.15 K | 0.0162
in 1,4-dioxane, 323.15 K | 0.019
in 1,4-dioxane, 328.15 K | 0.023
in THF, 278.65 K | 0.00583
in THF, 283.65 K | 0.00648
in THF, 288.15 K | 0.00764
in THF, 293.25 K | 0.00858
in THF, 298.25 K | 0.0102
in THF, 303.15 K | 0.0117
in THF, 307.95 K | 0.0133
in THF, 313.15 K | 0.0152
in THF, 318.05 K | 0.0169
in THF, 322.65 K | 0.0187
in THF, 327.15 K | 0.0215
in THF, 332.65 K | 0.0237
in acetone, 278.15 K | 0.00244
in acetone, 283.75 K | 0.00314
in acetone, 288.15 K | 0.00432
in acetone, 293.75 K | 0.00578
in acetone, 298.65 K | 0.00728
in acetone, 302.75 K | 0.00898
in acetone, 307.85 K | 0.0112
in acetone, 311.75 K | 0.0138
in acetone, 317.15 K | 0.0171
in acetone, 321.25 K | 0.0186
in acetonitrile, 278 K | 0.00557
in acetonitrile, 285.65 K | 0.0068
in acetonitrile, 288.75 K | 0.00746
in acetonitrile, 293.75 K | 0.00887
in acetonitrile, 298.25 K | 0.0101
in acetonitrile, 303.25 K | 0.0119
in acetonitrile, 308.15 K | 0.0142
in acetonitrile, 312.75 K | 0.0161
in acetonitrile, 317.65 K | 0.0192
in acetonitrile, 322.45 K | 0.0218
in acetonitrile, 327.75 K | 0.0258
in acetonitrile, 335.35 K | 0.0328
in benzene, 278.65 K | 0.0011
in benzene, 283.65 K | 0.00131
in benzene, 288.15 K | 0.00162
in benzene, 293.25 K | 0.00201
in benzene, 298.25 K | 0.00245
in benzene, 303.15 K | 0.00301
in benzene, 307.95 K | 0.00381
in benzene, 313.15 K | 0.00464
in benzene, 318.05 K | 0.00519
in benzene, 322.65 K | 0.00634
in benzene, 327.15 K | 0.00711
in benzene, 332.65 K | 0.0093
in benzene, 337.55 K | 0.0107
in benzene, 343.15 K | 0.0123
in benzene, 347.5 K | 0.0149
in chloroform, 278.75 K | 0.0352
in chloroform, 283.65 K | 0.0382
in chloroform, 288.85 K | 0.0403
in chloroform, 293.95 K | 0.042
in chloroform, 298.35 K | 0.0444
in chloroform, 303.25 K | 0.0471
in chloroform, 307.75 K | 0.0492
in chloroform, 313.15 K | 0.0527
in chloroform, 317.95 K | 0.0548
in chloroform, 322.75 K | 0.0591
in chloroform, 327.95 K | 0.0646
in dichloromethane, 278.65 K | 0.00771
in dichloromethane, 283.25 K | 0.00994
in dichloromethane, 288.65 K | 0.012
in dichloromethane, 293.25 K | 0.0152
in dichloromethane, 298.85 K | 0.0189
in dichloromethane, 302.95 K | 0.0232
in dichloromethane, 308.35 K | 0.0274
in dichloromethane, 310.95 K | 0.0317
in ethyl acetate, 293.65 K | 0.00232
in ethyl acetate, 298.25 K | 0.00278
in ethyl acetate, 303.15 K | 0.00385
in ethyl acetate, 308.05 K | 0.0046
in ethyl acetate, 312.95 K | 0.00561
in ethyl acetate, 317.95 K | 0.00671
in ethyl acetate, 322.95 K | 0.00781
in ethyl acetate, 327.95 K | 0.00913
in ethyl acetate, 332.75 K | 0.0097
in ethyl acetate, 337.65 K | 0.0111
in isopropanol, 278.15 K | 0.0004
in isopropanol, 283.15 K | 0.0005
in isopropanol, 288.35 K | 0.00066
in isopropanol, 293.65 K | 0.0008
in isopropanol, 298.15 K | 0.00106
in isopropanol, 302.17 K | 0.00128
in isopropanol, 307.95 K | 0.00177
in isopropanol, 312.55 K | 0.00203
in isopropanol, 317.55 K | 0.00254
in isopropanol, 321.55 K | 0.00318
in isopropanol, 326.65 K | 0.00389
in isopropanol, 332.15 K | 0.00485
in isopropanol, 337.55 K | 0.00626
in isopropanol, 343.15 K | 0.00791
in isopropanol, 347.5 K | 0.00958
in methanol, 278.15 K | 0.00151
in methanol, 283.65 K | 0.002
in methanol, 289.15 K | 0.00246
in methanol, 293.65 K | 0.00312
in methanol, 298.15 K | 0.00367
in methanol, 303.15 K | 0.0045
in methanol, 307.95 K | 0.00541
in methanol, 313.15 K | 0.00662
in methanol, 318.15 K | 0.00796
in methanol, 323.15 K | 0.00984
in tetrachloromethane, 278.15 K | 0.00015
in tetrachloromethane, 283.15 K | 0.00019
in tetrachloromethane, 288.35 K | 0.00026
in tetrachloromethane, 293.65 K | 0.00034
in tetrachloromethane, 298.15 K | 0.00044
in tetrachloromethane, 302.17 K | 0.00051
in tetrachloromethane, 307.95 K | 0.00066
in tetrachloromethane, 312.55 K | 0.00085
in tetrachloromethane, 317.55 K | 0.00103
in tetrachloromethane, 321.55 K | 0.00121
in tetrachloromethane, 326.65 K | 0.00143
in tetrachloromethane, 332.15 K | 0.00203
in tetrachloromethane, 337.15 K | 0.00246
